Test results taken from ChEMBL document CHEMBL1123649, “Congener derivatives and conjugates of histamine: synthesis and tissue and receptor selectivity of the derivatives” (J Med Chem, 1987).

What was measured:
[1] = biological target: Histamine H1 receptor (Homo sapiens) (UniProt P35367); assay: Effect on peripheral vasculature of the rabbit as percentage change in contractility.; assay type: functional, tissue-based; conditions: Oryctolagus cuniculus, target entry is the homologue from another species
Chain of Histamine H1 receptor (Homo sapiens) (P35367 whole entry): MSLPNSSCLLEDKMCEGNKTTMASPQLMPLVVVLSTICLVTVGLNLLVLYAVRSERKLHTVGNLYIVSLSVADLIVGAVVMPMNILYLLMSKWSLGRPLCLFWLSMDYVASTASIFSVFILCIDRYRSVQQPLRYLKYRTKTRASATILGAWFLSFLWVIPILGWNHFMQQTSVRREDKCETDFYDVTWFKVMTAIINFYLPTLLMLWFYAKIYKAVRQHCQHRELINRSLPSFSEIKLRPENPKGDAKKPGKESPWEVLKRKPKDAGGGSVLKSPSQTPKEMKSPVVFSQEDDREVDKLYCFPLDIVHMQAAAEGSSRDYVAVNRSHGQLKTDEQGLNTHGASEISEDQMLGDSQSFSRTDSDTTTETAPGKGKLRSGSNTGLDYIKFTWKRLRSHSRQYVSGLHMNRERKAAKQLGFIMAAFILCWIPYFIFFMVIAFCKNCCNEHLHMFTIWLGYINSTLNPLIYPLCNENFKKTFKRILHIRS

[2] = biological target: Histamine H2 receptor (Cavia porcellus) (UniProt P47747); assay: Relative potency in guinea pig myocardium (GPM) by adenylate cyclase stimulation assay, H2 receptor response; assay type: functional, tissue-based
Chain of Histamine H2 receptor (Cavia porcellus) (P47747 whole entry): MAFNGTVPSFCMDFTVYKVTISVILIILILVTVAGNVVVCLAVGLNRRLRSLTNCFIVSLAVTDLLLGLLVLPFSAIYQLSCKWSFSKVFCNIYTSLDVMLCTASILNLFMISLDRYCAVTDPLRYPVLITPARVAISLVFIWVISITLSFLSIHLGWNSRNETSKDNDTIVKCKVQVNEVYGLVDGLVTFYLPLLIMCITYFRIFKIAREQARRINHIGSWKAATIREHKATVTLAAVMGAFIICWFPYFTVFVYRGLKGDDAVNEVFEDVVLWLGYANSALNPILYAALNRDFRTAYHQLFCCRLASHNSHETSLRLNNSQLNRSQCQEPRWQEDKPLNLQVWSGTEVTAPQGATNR

[3] = biological target: Histamine H2 receptor (Mus musculus) (UniProt P97292); assay: Relative potency by cAMP assay in natural suppressor cells.; assay type: functional, cell-based
Chain of Histamine H2 receptor (Mus musculus) (P97292 whole entry): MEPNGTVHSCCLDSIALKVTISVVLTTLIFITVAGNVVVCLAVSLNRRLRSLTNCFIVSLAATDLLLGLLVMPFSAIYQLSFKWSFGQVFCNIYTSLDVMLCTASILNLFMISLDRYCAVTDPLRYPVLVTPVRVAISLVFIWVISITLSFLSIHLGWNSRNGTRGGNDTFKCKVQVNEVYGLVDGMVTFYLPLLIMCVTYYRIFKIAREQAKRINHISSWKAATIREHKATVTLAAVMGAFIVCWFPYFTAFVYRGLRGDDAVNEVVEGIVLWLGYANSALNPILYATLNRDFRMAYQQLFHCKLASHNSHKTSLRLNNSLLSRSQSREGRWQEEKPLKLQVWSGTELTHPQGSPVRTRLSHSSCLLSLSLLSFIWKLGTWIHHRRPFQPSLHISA

SMILES | Change [1] | Relative potency [2] | Relative potency [3]
CCCCCCNCCc1c[nH]cn1 | 93% | 0 | 5
CCCCNC(=O)CCCCC(C)NCCc1c[nH]cn1 (stereo not given) | 0% | 0.01 | 0
CCCCCC(C)NCCc1c[nH]cn1 (stereo not given) | 0% | 0 | 0
Cc1ccc(NC(=O)CCC(C)NCCc2c[nH]cn2)cc1 (stereo not given) | 0% | – | 0
CNC(=O)CNC(=O)C(Cc1ccccc1)N(NC(=O)CCCC(C)NCCc1c[nH]cn1)C(=O)OC(C)(C)C (stereo not given) | 0% | 0 | 0
CC(CC(=O)Nc1ccc(C(F)(F)F)cc1)NCCc1c[nH]cn1 (stereo not given) | 0% | – | 0
Cc1ccc(NC(=O)CC(C)NCCc2c[nH]cn2)cc1 (stereo not given) | 0% | – | 0
CNC(=O)CNC(=O)C(Cc1ccccc1)N(NC(=O)CCCCC(C)NCCc1c[nH]cn1)C(=O)OC(C)(C)C (stereo not given) | 0% | 0.0007 | 0
CC(CCCCC(=O)Nc1ccccc1C(F)(F)F)NCCc1c[nH]cn1 (stereo not given) | 0% | 0 | 0

Other lines, results leading:

Change [1] | Relative potency [2] | Relative potency [3] | SMILES
90% | 0.01 | 4000 | Cc1ccc(NC(=O)CCCC(C)NCCc2c[nH]cn2)cc1 (stereo not given)
0% | 0.02 | 2 | Cc1ccc(NC(=O)CCCCCC(C)NCCc2c[nH]cn2)cc1 (stereo not given)
0% | 0 | 0 | CCCCCC(=O)NCCc1c[nH]cn1
0% | 0 | 4.4 | Cc1ccc(NC(=O)CCCC(=O)NCCc2c[nH]cn2)cc1
284% | 1 | 1 | NCCc1c[nH]cn1
0% | – | 0 | CC(CCC(=O)Nc1ccc(C(F)(F)F)cc1)NCCc1c[nH]cn1 (stereo not given)
0% | 0.09 | 2 | Cc1ccc(NC(=O)CCCCNCCc2c[nH]cn2)cc1
0% | 0.07 | 3 | Cc1ccc(NC(=O)CCCCC(C)NCCc2c[nH]cn2)cc1 (stereo not given)
0% | 0 | 0 | CC(CCCC(=O)Nc1ccc(C(F)(F)F)cc1)NCCc1c[nH]cn1 (stereo not given)
0% | 0 | 0 | CNC(=O)CNC(=O)C(Cc1ccccc1)N(NC(=O)CCC(C)NCCc1c[nH]cn1)C(=O)OC(C)(C)C (stereo not given)
– | 0 | 40000 | CC(CCCCC(=O)Nc1ccc(C(F)(F)F)cc1)NCCc1c[nH]cn1 (stereo not given)
